Experimental data as given in US20180148418A1, “AMIDO-SUBSTITUTED CYCLOHEXANE DERIVATIVES” (Bayer Pharma Aktiengesellschaft, priority 2015, published 2018).

Legend:
[1] = tested on: HEK293 cells cotransfected with the FOP control vector; assay: HEK293 FOP assay (control reporter with non-functional TCF elements); format: cell-based; conditions: Homo sapiens, 16 hours
How it was run: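 Stable HEK293 line carrying FOP control reporter (randomized non-functional TCF sites, with pcDNA3), Geneticin-selected, plated 24 h before assay. Stimulated with recombinant human Wnt-3a (2500-5 ng/ml) and compounds 50 μM–15 nM (3.16-fold steps) in CAFTY buffer pH 7.4 with 2 mM Ca2+, 0.01% BSA, run parallel to TOP line.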

[2] = tested on: wildtype Wnt signaling cascade; assay: HEK293 TOP assay (Super TopFlash luciferase reporter, Wnt-3a stimulated); format: cell-based; conditions: Homo sapiens, HEK293, 16 h, HEK293 TOP reporter cells, Wnt3a at EC50, 16 hours
How it was run: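 HEK293 cells stably carrying Super TopFlash (TOP) run in parallel with FOP cells, 10000/well plated 24 h ahead, stimulated with recombinant human Wnt-3a. Compounds tested 50 μM to 15 nM in 3.16-fold steps in CAFTY buffer pH 7.4 with 2 mM Ca^2+ and 0.01% BSA; luciferase read-out.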

TNKS2 = target: T1, TNKS2 (Homo sapiens, UniProt Q9H2K2); assay: TNKS2 Assay B (auto-parsylation, [3H]-NAD+ SPA); format: biochemical; conditions: 6 nM TNKS2, auto-parsylation, over night at room temperature
T1 construct: purchased BPS Bioscience, San Diego, USA 80572 (TNKS2 Histone Ribosylation Assay Kit)
T1 sequence (Q9H2K2 1-1166): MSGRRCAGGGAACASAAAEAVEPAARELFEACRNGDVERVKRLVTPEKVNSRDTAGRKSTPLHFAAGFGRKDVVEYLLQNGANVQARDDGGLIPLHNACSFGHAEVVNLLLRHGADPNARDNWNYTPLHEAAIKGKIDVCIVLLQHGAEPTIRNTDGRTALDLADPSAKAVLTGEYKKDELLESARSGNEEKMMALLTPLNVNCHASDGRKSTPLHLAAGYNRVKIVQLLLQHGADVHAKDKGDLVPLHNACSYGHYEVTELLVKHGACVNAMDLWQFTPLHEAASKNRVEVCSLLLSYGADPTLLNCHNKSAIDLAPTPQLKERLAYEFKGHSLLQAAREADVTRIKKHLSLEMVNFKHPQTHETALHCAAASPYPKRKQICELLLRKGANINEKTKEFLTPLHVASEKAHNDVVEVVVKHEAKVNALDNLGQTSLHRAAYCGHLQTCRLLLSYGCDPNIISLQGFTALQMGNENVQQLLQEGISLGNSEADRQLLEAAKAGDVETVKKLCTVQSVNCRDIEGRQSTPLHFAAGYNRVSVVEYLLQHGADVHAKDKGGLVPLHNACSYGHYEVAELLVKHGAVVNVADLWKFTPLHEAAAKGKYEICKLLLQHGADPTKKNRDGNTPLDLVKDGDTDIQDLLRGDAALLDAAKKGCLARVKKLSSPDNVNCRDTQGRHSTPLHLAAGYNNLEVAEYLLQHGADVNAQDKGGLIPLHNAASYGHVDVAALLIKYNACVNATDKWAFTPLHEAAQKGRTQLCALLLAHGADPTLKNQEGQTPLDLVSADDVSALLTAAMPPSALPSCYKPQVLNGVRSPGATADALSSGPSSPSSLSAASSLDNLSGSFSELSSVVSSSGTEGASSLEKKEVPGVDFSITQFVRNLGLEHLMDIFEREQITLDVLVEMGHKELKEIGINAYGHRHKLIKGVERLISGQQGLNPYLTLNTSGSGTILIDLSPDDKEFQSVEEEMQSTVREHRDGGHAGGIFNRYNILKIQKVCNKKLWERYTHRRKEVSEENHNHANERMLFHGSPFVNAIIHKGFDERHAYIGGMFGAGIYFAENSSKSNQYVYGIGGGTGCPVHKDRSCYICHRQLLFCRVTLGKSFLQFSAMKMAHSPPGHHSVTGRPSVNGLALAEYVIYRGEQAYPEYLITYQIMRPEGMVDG

Row | SMILES | IC50 [1] [nM] | IC50 [2] [nM] | IC50 (TNKS2) [nM]
1 | O=C(N[C@H]1CC[C@@]2(CCN(c3c(F)cc(F)cc3Cl)C2=O)CC1)c1cnn2cccnc12 [Example 244, N-[(trans)-2-(2-chloro-4,6-difluorophenyl)-1-oxo-2-azaspiro[4.5]dec-8-yl]pyrazolo[1,5-a]pyrimidine-3-carboxamide] | ≥ 500 | 3.7 | 6.4
2 | O=C(N[C@H]1CC[C@@]2(CCN(c3cc(F)cc(F)c3)C2=O)CC1)c1cnn2cccnc12 [Example 245, N-[(trans)-2-(3,5-difluorophenyl)-1-oxo-2-azaspiro[4.5]dec-8-yl]pyrazolo[1,5-a]pyrimidine-3-carboxamide] | ≥ 50000 | 100 | 720
3 | O=C(N[C@H]1CC[C@@]2(CCN(c3cnccc3Cl)C2=O)CC1)c1cnn2cccnc12 [Example 246, N-[(trans)-2-(4-chloropyridin-3-yl)-1-oxo-2-azaspiro[4.5]dec-8-yl]pyrazolo[1,5-a]pyrimidine-3-carboxamide] | ≥ 50000 | 0.15 | 5.9
4 | Cn1nc(C(=O)N[C@H]2CC[C@@]3(CCN(c4ccc(F)cc4Cl)C3=O)CC2)c2ccccc21 [Example 247, N-[(trans)-2-(2-chloro-4-fluorophenyl)-1-oxo-2-azaspiro[4.5]dec-8-yl]-1-methyl-1H-indazole-3-carboxamide] | 13000 | 490 | 6000
5 | O=C(N[C@H]1CC[C@@]2(CCN(c3ccc(F)cc3Cl)C2=O)CC1)c1n[nH]c2cccc(I)c12 [Example 248, N-[(trans)-2-(2-chloro-4-fluorophenyl)-1-oxo-2-azaspiro[4.5]dec-8-yl]-4-iodo-1H-indazole-3-carboxamide] | ≥ 50000 | 5100 | > 10000
6 | Cn1nc(C(=O)N[C@H]2CC[C@H](C(=O)Nc3ccc(F)cc3Cl)CC2)c2ccccc21 [Example 249, N-{trans-4-[(2-chloro-4-fluorophenyl)carbamoyl]cyclohexyl}-1-methyl-1H-indazole-3-carboxamide] | ≥ 50000 | 14000 | > 10000
7 | Cn1nc2ccccc2c1C(=O)N[C@H]1CC[C@H](C(=O)Nc2ccc(F)cc2Cl)CC1 [Example 250, N-{trans-4-[(2-chloro-4-fluorophenyl)carbamoyl]cyclohexyl}-2-methyl-2H-indazole-3-carboxamide] | ≥ 50000 | ≥ 50000 | > 10000
8 | O=C(N[C@H]1CC[C@@]2(CCN(c3ccc(F)cc3Cl)C2=O)CC1)c1n[nH]c2ccccc12 [Example 251, N-[trans-2-(2-chloro-4-fluorophenyl)-1-oxo-2-azaspiro[4.5]dec-8-yl]-1H-indazole-3-carboxamide] | ≥ 50000 | 2500 | > 10000
9 | O=C(N[C@H]1CC[C@H](C(=O)Nc2ccc(F)cc2Cl)CC1)c1c[nH]c2ccccc12 [Example 252, N-{trans-4-[(2-chloro-4-fluorophenyl)carbamoyl]cyclohexyl}-1H-indole-3-carboxamide] | ≥ 50000 | ≥ 50000 | > 10000
10 | O=C(N[C@H]1CC[C@H](C(=O)Nc2ccc(F)cc2Cl)CC1)c1n[nH]c2ccccc12 [Example 253, N-{trans-4-[(2-chloro-4-fluorophenyl)carbamoyl]cyclohexyl}-1H-indazole-3-carboxamide] | 19000 | 20000 | > 10000
11 | O=C(N[C@H]1CC[C@H](C(=O)Nc2ccc(F)cc2Cl)CC1)c1n[nH]c2ccc(F)cc12 [Example 254, N-{trans-4-[(2-chloro-4-fluorophenyl)carbamoyl]cyclohexyl}-5-fluoro-1H-indazole-3-carboxamide] | ≥ 50000 | 10000 | > 10000
12 | O=C(N[C@H]1CC[C@H](C(=O)Nc2ccc(F)cc2Cl)CC1)c1c(Cl)nc2ccccn12 [Example 255, 2-chloro-N-{trans-4-[(2-chloro-4-fluorophenyl)carbamoyl]cyclohexyl}imidazo[1,2-a]pyridine-3-carboxamide] | ≥ 50000 | ≥ 50000 | > 10000
13 | NC(=O)c1nc[nH]c1C(=O)N[C@H]1CC[C@@]2(CCN(c3ccccc3Cl)C2=O)CC1 [Example 261, N^5-[(trans)-2-(2-chlorophenyl)-1-oxo-2-azaspiro[4.5]dec-8-yl]-1H-imidazole-4,5-dicarboxamide] | ≥ 50000 | 4.6 | 17
14 | O=C(N[C@H]1CC[C@@]2(CCN(c3ccccc3Cl)C2=O)CC1)c1[nH]cnc1C(=O)N1CC(F)C1 [Example 262, N-[(trans)-2-(2-chlorophenyl)-1-oxo-2-azaspiro[4.5]dec-8-yl]-4-[(3-fluoroazetidin-1-yl)carbonyl]-1H-imidazole-5-carboxamide] | ≥ 50000 | 0.08 | 7
15 | O=C(N[C@H]1CC[C@@]2(CCN(c3ccccc3Cl)C2=O)CC1)c1[nH]cnc1C(=O)N1CC2(COC2)C1 [Example 263, N-[(trans)-2-(2-chlorophenyl)-1-oxo-2-azaspiro[4.5]dec-8-yl]-4-(2-oxa-6-azaspiro[3.3]hept-6-ylcarbonyl)-1H-imidazole-5-carboxamide] | ≥ 50000 | 2.7 | 11
16 | O=C(N[C@H]1CC[C@@]2(CCN(c3ccccc3Cl)C2=O)CC1)c1n[nH]c2cccnc12 [Example 272, N-[(trans)-2-(2-chlorophenyl)-1-oxo-2-azaspiro[4.5]dec-8-yl]-1H-pyrazolo[4,3-b]pyridine-3-carboxamide] | ≥ 50000 | 200 | 640
17 | Cc1ccnc2c(C(=O)N[C@H]3CC[C@@]4(CCN(c5ccccc5Cl)C4=O)CC3)cnn12 [Example 273, N-[(trans)-2-(2-chlorophenyl)-1-oxo-2-azaspiro[4.5]dec-8-yl]-7-methylpyrazolo[1,5-a]pyrimidine-3-carboxamide] | ≥ 50000 | 1.9 | 11
18 | O=C(N[C@H]1CC[C@@]2(CCN(c3ccccc3Cl)C2=O)CC1)c1c[nH]c2cccnc12 [Example 274, N-[(trans)-2-(2-chlorophenyl)-1-oxo-2-azaspiro[4.5]dec-8-yl]-1H-pyrrolo[3,2-b]pyridine-3-carboxamide] | 38000 | 2.8 | 71
19 | O=C(N[C@H]1CC[C@@]2(CCN(c3cccc(Cl)c3)C2=O)CC1)c1c[nH]c2cccnc12 [Example 275, N-[(trans)-2-(3-chlorophenyl)-1-oxo-2-azaspiro[4.5]dec-8-yl]-1H-pyrrolo[3,2-b]pyridine-3-carboxamide] | 11000 | 600 | 300
20 | CN1CCN(C(=O)c2nc[nH]c2C(=O)N[C@H]2CC[C@@]3(CCN(c4cccc(Cl)c4)C3=O)CC2)CC1 [Example 283, N-[(trans)-2-(3-chlorophenyl)-1-oxo-2-azaspiro[4.5]dec-8-yl]-4-[(4-methylpiperazin-1-yl)carbonyl]-1H-imidazole-5-carboxamide] | 20000 | 440 | 4300
21 | O=C(NCCN1CCOCC1)c1nc[nH]c1C(=O)N[C@H]1CC[C@@]2(CCN(c3cccc(Cl)c3)C2=O)CC1 [Example 287, N^5-[(trans)-2-(3-chlorophenyl)-1-oxo-2-azaspiro[4.5]dec-8-yl]-N^4-[2-(morpholin-4-yl)ethyl]-1H-imidazole-4,5-dicarboxamide] | ≥ 50000 | 69 | 21
22 | Cc1cc(N2CC[C@]3(CC[C@@H](NC(=O)c4[nH]cnc4C(N)=O)CC3)C2=O)c(Cl)cc1F [Example 291, N^5-[(trans)-2-(2-chloro-4-fluoro-5-methylphenyl)-1-oxo-2-azaspiro[4.5]dec-8-yl]-1H-imidazole-4,5-dicarboxamide] | ≥ 50000 | 4.9 | 8.6
